Results published in publication PMC2764262 (Experimental cell research, 2008).

Columns and labels:
[1] = system: caspase-3; assay: Cleaved caspase-3 expression by Western blotting; assay type: cell-based, human; conditions: HBMEC, 5 µM peptide, 18 h, FGF-2 20 ng/ml
[2] = Peptide solubility on aging; conditions: 1 mg/ml in Hanks' Balanced Salt Solution, 37 °C, up to 6 days; O.D. 280 nm after centrifugation
[3] = system: human brain microvascular endothelial cells (HBMEC); assay: BrdU labeling assay, cell proliferation; assay type: cell-based; conditions: 25 µM peptide, 48 h, 0.1% FBS, no FGF-2
[4] = system: human brain microvascular endothelial cells (HBMEC); assay: Pseudo-capillary sprouting, microcarrier culture in fibrin gel; assay type: cell-based; conditions: HBMEC on microcarriers in fibrin gel, FGF-2 20 ng/ml, 5 µM peptide, day 2
[5] = Circular dichroism spectroscopy, secondary structure; assay type: physicochemical; conditions: 1 mg/ml in Hanks balanced salt solution, 37 °C, up to day 6 (WT: by day 3)
[6] = system: human brain microvascular endothelial cells (HBMEC); assay: BrdU labeling assay, proliferation induced by FGF-2; assay type: cell-based; conditions: FGF-2 20 ng/ml, 48 h
[7] = system: FGF-2; assay: FGF-2 production by Western blotting; assay type: cell-based, human; conditions: HBMEC, 5 µM peptide, 18 h; Western blot
[8] = system: FGFR-1; assay: FGFR-1 phosphorylation; assay type: cell-based, human; conditions: HBMEC, 5 µM peptide, FGF-2 20 ng/ml 15 min; IP anti-FGFR-1, anti p-Tyr
[9] = system: Akt; assay: Akt phosphorylation by Western blotting; assay type: cell-based, human; conditions: HBMEC, 5 µM peptide, 30 min, FGF-2 20 ng/ml; Western blot

E22Q: Synthetic Aβ (1–40) peptide bearing the E22Q (Dutch) mutation
caspase-3 activation with concomitant FGF-2 administration [1]: failed to prevent caspase-3 activation
solubility relative to the other peptides [2]: lower values than those of WT
inhibition of cell proliferation (BrdU incorporation) [3]: total inhibition
reduction of pseudo-capillary sprouting area [4]: nearly suppressed
secondary structure by CD on further incubation [5]: the β-sheet content increased
inhibition of FGF-2-induced BrdU incorporation ([6]; 1 µM peptide): 60%
inhibition of FGF-2-induced BrdU incorporation ([6]; concentrations higher than 1 µM (up to 25 µM)): > 90%
FGF-2 expression [7]: decreased expression
FGFR-1 phosphorylation in response to FGF-2 [8]: reduced phosphorylation to levels observed in quiescent cells
FGF-2-induced Akt phosphorylation [9]: marked reduction
